Experimental data: PubChem BioAssay AID292 (DTP/NCI, 2004)
Values joined by “and” are separate entries in the source; they are usually repeats but may differ in a detail not shown here. Equal entries are not always repeated. Toxic doses and inconclusive results are not listed. How the source made its calls: active means survival T/C of 150% or more; inactive means T/C below 125% in these data.

System: B6C3F1 mice, ip Sarcoma M5076, median survival T/C
Experiment: NCI In Vivo Anticancer Drug Screen. Data for tumor model Sarcoma M5076 (intraperitoneal) in B6C3F1 mice
Conditions: endpoint: median survival time, schedule: Q04DX004 (ip), higher = longer survival
Procedure, shortened: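 Tumour cells were transplanted into mice, compound or vehicle was given, survival of both groups was followed, and the treated figure was expressed over the control figure.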

[1] = dose: 50.0 mg/kg/injection, vehicle: saline with Tween-80
[2] = dose: 100.0 mg/kg/injection, vehicle: saline with Tween-80
[3] = dose: 200.0 mg/kg/injection, vehicle: saline with Tween-80

Measured: T/C

CN(C)C(=O)SC1=C(c2c(Cl)cccc2Cl)C(=O)c2ccccc21
inactive: dose: 37.5 mg/kg/injection, vehicle: Klucel (hydroxypropylcellulose) (HPC) 97 % of control | dose: 75.0 mg/kg/injection, vehicle: Klucel (hydroxypropylcellulose) (HPC) 113 % of control | dose: 150.0 mg/kg/injection, vehicle: Klucel (hydroxypropylcellulose) (HPC) 104 % of control | dose: 300.0 mg/kg/injection, vehicle: Klucel (hydroxypropylcellulose) (HPC) 95 % of control | dose: 1200.0 mg/kg/injection, vehicle: Klucel (hydroxypropylcellulose) (HPC) 95 % of control

O=C(N/N=C/c1ccc(O)cc1)c1ccc(OCc2nc3ccccc3[nH]2)cc1
inactive: dose: 25.0 mg/kg/injection, vehicle: Klucel (hydroxypropylcellulose) (HPC) 96 % of control | dose: 100.0 mg/kg/injection, vehicle: Klucel (hydroxypropylcellulose) (HPC) 93 % of control | dose: 400.0 mg/kg/injection, vehicle: Klucel (hydroxypropylcellulose) (HPC) 92 % of control

O=c1cc(CCl)[nH]nc1CCl
inactive: dose: 3.0 mg/kg/injection, vehicle: saline with Tween-80 111 % of control | dose: 6.0 mg/kg/injection, vehicle: saline with Tween-80 110 % of control | dose: 12.0 mg/kg/injection, vehicle: saline with Tween-80 112 % of control | dose: 24.0 mg/kg/injection, vehicle: saline with Tween-80 120 % of control | dose: 48.0 mg/kg/injection, vehicle: saline with Tween-80 114 % of control

CN1CCN(c2c(C(=O)Nc3ccc([N+](=O)[O-])cc3)cc([N+](=O)[O-])cc2[N+](=O)[O-])CC1
inactive: dose: 37.5 mg/kg/injection, vehicle: saline with Tween-80 96 % of control | dose: 75.0 mg/kg/injection, vehicle: saline with Tween-80 91 % of control

O=c1[nH]c(=O)n(C2OC(CF)C(O)C2O)cc1N1CCOCC1 (centres undefined)
inactive: dose: 17.5 mg/kg/injection, vehicle: saline 100 % of control | dose: 35.0 mg/kg/injection, vehicle: saline 104 % of control | dose: 70.0 mg/kg/injection, vehicle: saline 97 % of control | dose: 140.0 mg/kg/injection, vehicle: saline 104 % of control | dose: 280.0 mg/kg/injection, vehicle: saline 102 % of control

O=S(=O)(O)SCCNCCCCC1CCCCC1
inactive: dose: 3.75 mg/kg/injection, vehicle: saline with Tween-80 100 % of control | dose: 7.5 mg/kg/injection, vehicle: saline with Tween-80 99 % of control | dose: 15.0 mg/kg/injection, vehicle: saline with Tween-80 101 % of control

CN(C)c1cc2c(nn1)Nc1ccccc1S2
inactive: [1] 88 % of control | [2] 88 % of control | [3] 97 % of control | dose: 800.0 mg/kg/injection, vehicle: saline with Tween-80 90 % of control

COC1=C(C)C(=O)C2=C(C1=O)C(CO)N1C(C#N)C3CC4C(C1C2N1CCOC41)N3C (centres undefined)
inactive: dose: 0.12 mg/kg/injection, vehicle: acid diluted with saline 97 % of control | dose: 0.25 mg/kg/injection, vehicle: acid diluted with saline 103 % of control | dose: 0.5 mg/kg/injection, vehicle: acid diluted with saline 100 % of control | dose: 1.0 mg/kg/injection, vehicle: acid diluted with saline 90 % of control and 93 % of control | dose: 2.0 mg/kg/injection, vehicle: acid diluted with saline 98 % of control and 109 % of control

O=Cc1ccc(O)c(O)c1
inactive: [1] 100 % of control | [2] 96 % of control | [3] 104 % of control | dose: 400.0 mg/kg/injection, vehicle: saline with Tween-80 104 % of control

CC(=O)NO
inactive: dose: 100.0 mg/kg/injection, vehicle: water 97 % of control and 100 % of control and 105 % of control | dose: 200.0 mg/kg/injection, vehicle: water 101 % of control and 103 % of control and 104 % of control | dose: 400.0 mg/kg/injection, vehicle: water 107 % of control and 109 % of control | dose: 800.0 mg/kg/injection, vehicle: water 106 % of control and 108 % of control | dose: 1600.0 mg/kg/injection, vehicle: water 113 % of control and 115 % of control

O=C(O)CC1C(=O)OC2C3COC(=O)c4cc(O)c(O)c(O)c4-c4c(cc(O)c(O)c4O)C(=O)OC2C(OC(=O)c2cc(O)c(O)c4c2C1C(O)C(=O)O4)C(OC(=O)c1cc(O)c(O)c(O)c1)O3 (centres undefined)
inactive: dose: 6.25 mg/kg/injection, vehicle: saline 89 % of control | dose: 12.5 mg/kg/injection, vehicle: saline 96 % of control | dose: 25.0 mg/kg/injection, vehicle: saline 97 % of control | dose: 25.0 mg/kg/injection, vehicle: suspension in saline 96 % of control | dose: 50.0 mg/kg/injection, vehicle: saline 104 % of control | dose: 50.0 mg/kg/injection, vehicle: suspension in saline 97 % of control | dose: 100.0 mg/kg/injection, vehicle: saline 96 % of control | dose: 100.0 mg/kg/injection, vehicle: suspension in saline 100 % of control
